{
  "source": "patent US20180271870A1",
  "about": "“Compositions and Methods for Immune Therapy” (Augusta University Research Institute, Inc., priority 2014, published 2018)",
  "key": {"CD8 T cells [1]": {"test_system": "CD8 T cells", "assay": "Phenotyping of gp100-stimulated pMel-1 CD8 T cells by flow cytometry", "assay_type": "cell-based, mouse", "details": "for percentage of naïve cells (CD62LhiCD44lo) versus non-treated: after 3 days of stimulation; for up-regulation of exhaustion marker KLRG-1 in CD8 T cells: after the second and third stimulations; for CD62L expression in CD8 T cells / CD127 expression in CD8 T cells: day 3 and/or day 7 after each stimulation with gp100; for reservoir of TCM cells after repeated stimulation: day 7 after each stimulation, MK-2206 0.67 μM, Akt 1/2 inhibitor 2.2 μM; for percentage of CD8 T cells with TCM phenotype (CD62LhiCD44hi): pMel-1 splenocytes, gp100 25-33 1 μM, representative example, gated viable CD8+Vβ13+", "description": "Tumor antigen-specific CD8 T cells Unfractionated splenocytes from pMel-1 mice were homogenized and stimulated in vitro by gp10025-33 peptide at a 1 μM/ml concentration (day 0). Cells were cultured in RPMI 1640 (Lonza, Allendale, N.J.) supplemented with 10% FBS, penicillin (100 U/mL), streptomycin ([…]), 0.1% β-mercaptoethanol (Life Technologies, Invitrogen, Carlsbad, Calif.) and IL-2 (100 U/ml) (Peprotech, Rocky Hill, N.J.) at 37° C. with 5% CO2. […]. The concentration of the inhibitors was maintained throughout the culture by changing the media every 48-72 hours.\nOn Days 7, 14 and 21, cells were re-stimulated with gp10025-33 peptide at a 1 μM/ml concentration using feeder cells (irradiated WT splenocytes, 4000 Rads) at 1:1 ratio using the same culture conditions.\nTo assess the phenotype of the T cells, the cultured cells were harvested and analyzed on days 3, 7, 14 and 21. The cells were stained with APC-Cy7 labeled anti-CD8, FITC labeled anti-Vβ13, PE labeled anti-CD62L, APC labeled anti-CD44, PE-CF594 labeled anti-CD127, APC labeled anti-KLRG-1 in addition to the viability stain 7AAD (BD Biosciences, San Jose, Calif.). The same APC-Cy7 labeled anti-CD8 was used for sorting the cells using the FACS ARIA II (BD Biosciences, San Jose, Calif.).\nFor proliferation and phenotyping, the analyses were performed on CD8 T cells specific for the gp100 antigen and were gated on viable (7AAD−), Vβ13+CD8+ T cells. For WT and KO cells, the cells were gated on viable (7AAD−), CD8+ T cells."}, "CD8 T cells [2]": {"test_system": "CD8 T cells", "assay": "Proliferation assay (VCT dye dilution / expansion) of gp100-stimulated pMel-1 CD8 T cells", "assay_type": "cell-based, mouse", "details": "for proliferation of CD8 T cells (VCT dilution): day 3 after first stimulation; for expansion of CD8 T cells with further stimulations: re-stimulation days 7, 14, 21, normalized to non-treated control", "method": "Prior to their stimulation (day 0), cells were labeled with 5 μM Violet Cell Trace (VCT) proliferation dye (Life Technologies, Invitrogen, Carlsbad, Calif.) following the manufacturers' instructions. Samples were then evaluated for CD8 T cell expansion via VCT dye dilution (day 3) using an LSRII SORP with HTS Flow Cytometer (BD Biosciences, San Jose, Calif.). The data were analyzed using FlowJo 9 or 10 (Tree Star)."}, "CD8 T cells [3]": {"test_system": "CD8 T cells", "assay": "Cytometric bead array of cytokine secretion by re-stimulated pMel-1 CD8 T cells", "assay_type": "cell-based, mouse", "details": "for IL-2 secretion: re-stimulated CD8 T cells; for IFNγ secretion with further stimulations / TNF secretion with further stimulations: supernatant after 24 hours, CBA", "description": "Following the same activation protocol mentioned above, the pMel-1 gp100-specific CD8 T cells were harvested on day 7 after the first and second stimulation. The viable cells (trypan blue negative) were then counted and co-incubated (at 1:1 ratio) with 1 μM/ml gp10025-33 pulsated irradiated splenocytes (4000 Rads) for 24 hours using the same culture conditions. The supernatant was collected and the level of IL-2, TNF and IFN-γ was assessed using the mouse Th1/Th2/Th17 Cytokine Kit BD™ Cytometric Bead Array (CBA) kit. The data was collected using an LSRII SORP with HTS flow cytometer (BD Biosciences, San Jose, Calif.), and analyzed using the FCAP Array Software v3.0 (BD Biosciences, San Jose, Calif.)."}, "CD8 T cells [4]": {"test_system": "CD8 T cells", "assay": "Phenotype of anti-CD3/anti-CD28 stimulated CD8 T cells from WT and Akt KO mice", "assay_type": "cell-based, mouse", "details": "day 7; anti-CD3 (1 ng/ml) + anti-CD28; MK-2206 0.67 μM, Akt 1/2 inhibitor 2.2 μM", "description": "The cells were then stimulated using feeder cells (irradiated WT splenocytes, 4000 Rads) at 1:1 ratio (day 0) using TCR stimulation ([…], BD Biosciences, San Jose, Calif.) and co-stimulation (anti-CD28 antibody 2.5 μg/ml BD Biosciences, San Jose, Calif.) in the presence of 100 U/ml IL-2 (Peprotech, Rocky Hill, N.J.). […] Cells were cultured in the same conditions described above. To assess the phenotype of the T cells, the cultured cells were harvested and analyzed on days 3, 7, 14 and 21. The cells were stained with APC-Cy7 labeled anti-CD8, FITC labeled anti-Vβ13, PE labeled anti-CD62L, APC labeled anti-CD44, PE-CF594 labeled anti-CD127, APC labeled anti-KLRG-1 in addition to the viability stain 7AAD (BD Biosciences, San Jose, Calif.). The same APC-Cy7 labeled anti-CD8 was used for sorting the cells using the FACS ARIA II (BD Biosciences, San Jose, Calif.). For proliferation and phenotyping, the analyses were performed on CD8 T cells specific for the gp100 antigen and were gated on viable (7AAD−), Vβ13+CD8+ T cells. For WT and KO cells, the cells were gated on viable (7AAD−), CD8+ T cells."}, "[5]": {"test_system": "250 other protein kinases", "details": "cited from earlier work"}, "[6]": {"details": "cited from earlier work"}, "[7]": {"details": "intermittent dosing schedule of 480 mg twice a day; cited from earlier work"}},
  "data": [
    {"compound": "NC1(c2ccc(-c3nc4ccn5c(=O)[nH]nc5c4cc3-c3ccccc3)cc2)CCC1", "note": "[MK-2206]", "values": [
      {"measurement": "percentage of naïve cells (CD62LhiCD44lo) versus non-treated", "setting": "CD8 T cells [1]", "result": "higher percentage"},
      {"measurement": "up-regulation of exhaustion marker KLRG-1 in CD8 T cells", "setting": "CD8 T cells [1]", "result": "inhibits the up-regulation"},
      {"measurement": "CD62L expression in CD8 T cells", "setting": "CD8 T cells [1]", "result": "maintains a high level"},
      {"measurement": "CD127 expression in CD8 T cells", "setting": "CD8 T cells [1]", "result": "maintains high levels"},
      {"measurement": "reservoir of TCM cells after repeated stimulation", "setting": "CD8 T cells [1]", "result": "a high percentage was preserved"},
      {"measurement": "percentage of CD8 T cells with TCM phenotype (CD62LhiCD44hi)", "setting": "CD8 T cells [1]", "result": 65, "unit": "%"},
      {"measurement": "proliferation of CD8 T cells (VCT dilution)", "setting": "CD8 T cells [2]", "result": "inhibited in a dose-dependent manner"},
      {"measurement": "expansion of CD8 T cells with further stimulations", "setting": "CD8 T cells [2]", "result": "expand at a significantly high rate"},
      {"measurement": "IFN-γ production after the second stimulation versus non-treated", "setting": "CD8 T cells [3]; 24 hours after re-stimulation", "result": "high and comparable levels"},
      {"measurement": "IFN-γ secretion after the third stimulation versus non-treated", "setting": "CD8 T cells [3]; 24 hours after re-stimulation", "result": "maintained at a significantly higher level"},
      {"measurement": "TNF production after the second stimulation versus non-treated", "setting": "CD8 T cells [3]; 24 hours after re-stimulation", "result": "high and comparable levels"},
      {"measurement": "TNF secretion after the third stimulation versus non-treated", "setting": "CD8 T cells [3]; 24 hours after re-stimulation", "result": "maintained at a significantly higher level"},
      {"measurement": "IL-2 secretion", "setting": "CD8 T cells [3]", "result": "significantly higher levels"},
      {"measurement": "IFNγ secretion with further stimulations", "setting": "CD8 T cells [3]", "result": "maintain their ability to secrete IFNγ"},
      {"measurement": "TNF secretion with further stimulations", "setting": "CD8 T cells [3]", "result": "significantly higher levels"},
      {"measurement": "TCM cells in CD8 T cells from Akt1 KO mice", "setting": "CD8 T cells [4]", "result": "more TCM cells"},
      {"measurement": "TCM cells in CD8 T cells from Akt2 KO mice", "setting": "CD8 T cells [4]", "result": "maintains a significantly higher percentage of TCM cells"},
      {"measurement": "TCM cells in CD8 T cells from Akt3 KO mice", "setting": "CD8 T cells [4]", "result": "maintains a significantly higher percentage of TCM cells"},
      {"measurement": "phenotype of CD8 T cells from WT mice", "setting": "CD8 T cells [4]", "result": "consist mainly of TCM cells"},
      {"measurement": "inhibitory activities against 250 other protein kinases", "setting": "[5]", "result": "no inhibitory activities"},
      {"measurement": "dose-limiting toxicities", "setting": "[6]; 30, 60, 75 or 90 mg on alternate days", "result": "skin rash and stomatitis"},
      {"measurement": "MTD", "setting": "[6]; oral, alternate days, patients with advanced solid tumors", "result": 60, "unit": "mg"}
    ]},
    {"compound": "NC1(C(=O)N[C@@H](CCO)c2ccc(Cl)cc2)CCN(c2ncnc3[nH]ccc23)CC1", "note": "[AZD5363]", "values": [
      {"measurement": "up-regulation of exhaustion marker KLRG-1 in CD8 T cells", "setting": "CD8 T cells [1]", "result": "inhibits the up-regulation"},
      {"measurement": "CD62L expression in CD8 T cells", "setting": "CD8 T cells [1]", "result": "maintains a high level"},
      {"measurement": "CD127 expression in CD8 T cells", "setting": "CD8 T cells [1]", "result": "maintains a high level"},
      {"measurement": "percentage of CD8 T cells with TCM phenotype (CD62LhiCD44hi)", "setting": "CD8 T cells [1]", "result": 91, "unit": "%"},
      {"measurement": "expansion of CD8 T cells with further stimulations", "setting": "CD8 T cells [2]", "result": "enhanced the proliferation"},
      {"measurement": "tolerability", "setting": "[7]", "result": "generally well tolerated"}
    ]},
    {"compound": "O.O=C(O)C(F)(F)F.O=c1[nH]c2ccccc2n1C1CCN(Cc2ccc(-c3nc4cc5[nH]cnc5cc4nc3-c3ccccc3)cc2)CC1", "note": "[Akt 1/2 inhibitor, 1,3-Dihydro-1-(1-((4-(6-phenyl-1H-imidazo[4,5-g]quinoxalin-7-yl)phenyl)methyl)-4-piperidinyl)-2H-benzimidazol-2-one trifluoroacetate salt hydrate]", "values": [
      {"measurement": "percentage of naïve cells (CD62LhiCD44lo) versus non-treated", "setting": "CD8 T cells [1]", "result": "higher percentage"},
      {"measurement": "up-regulation of exhaustion marker KLRG-1 in CD8 T cells", "setting": "CD8 T cells [1]", "result": "mitigates the up-regulation"},
      {"measurement": "CD62L expression in CD8 T cells", "setting": "CD8 T cells [1]", "result": "maintains a high level"},
      {"measurement": "CD127 expression in CD8 T cells", "setting": "CD8 T cells [1]", "result": "maintains a high level"},
      {"measurement": "reservoir of TCM cells after repeated stimulation", "setting": "CD8 T cells [1]", "result": "a high percentage was preserved"},
      {"measurement": "percentage of CD8 T cells with TCM phenotype (CD62LhiCD44hi)", "setting": "CD8 T cells [1]", "result": 76, "unit": "%"},
      {"measurement": "proliferation of CD8 T cells (VCT dilution)", "setting": "CD8 T cells [2]", "result": "inhibited in a dose-dependent manner"},
      {"measurement": "expansion of CD8 T cells with further stimulations", "setting": "CD8 T cells [2]", "result": "significantly enhanced"},
      {"measurement": "IL-2 secretion", "setting": "CD8 T cells [3]", "result": "high secretion levels"},
      {"measurement": "IFNγ secretion with further stimulations", "setting": "CD8 T cells [3]", "result": "preserved high levels"},
      {"measurement": "TNF secretion with further stimulations", "setting": "CD8 T cells [3]", "result": "preserved high levels"},
      {"measurement": "TCM cells in CD8 T cells from Akt1 KO mice", "setting": "CD8 T cells [4]", "result": "more TCM cells"},
      {"measurement": "TCM cells in CD8 T cells from Akt2 KO mice", "setting": "CD8 T cells [4]", "result": "maintains a significantly higher percentage of TCM cells"},
      {"measurement": "TCM cells in CD8 T cells from Akt3 KO mice", "setting": "CD8 T cells [4]", "result": "maintains a significantly higher percentage of TCM cells"},
      {"measurement": "phenotype of CD8 T cells from WT mice", "setting": "CD8 T cells [4]", "result": "consist mainly of TCM cells"}
    ]}
  ]
}
